Test results reported in ChEMBL document CHEMBL3885881, “DrugMatrix”.

Species: Rattus norvegicus
Assay: DrugMatrix - Regimen: Daily Repeat
Format: toxicity, organism-based, Sprague-Dawley
Set-up: regimen Daily Repeat, gender Male, age 6-8 weeks
Settings: in vivo, po, 0 mg/kg, route oral GAVAGE, dose level Control; for ABSOLUTE EOSINOPHIL / ABSOLUTE LYMPHOCYTE / ABSOLUTE MONOCYTE / ABSOLUTE SEGMENTED NEUTROPHIL / EOSINOPHIL / ERYTHROCYTE COUNT / HEMATOCRIT / HEMOGLOBIN / LEUKOCYTE COUNT / LYMPHOCYTE / MEAN CORPUSCULAR HEMOGLOBIN / MEAN CORPUSCULAR HEMOGLOBIN CONCENTRATION / MEAN CORPUSCULAR VOLUME / MONOCYTE / NEUTROPHIL / NUCLEATED RED BLOOD CELLS / PLATELET COUNT / ABSOLUTE BASOPHIL / BASOPHIL: tissue Blood
[1] = 72 h, time 3 day, vehicle 100 % SALINE
[2] = 72 h, time 3 day, vehicle 100 % WATER
[3] = 72 h, tissue Plasma, time 3 day, vehicle 100 % SALINE
[4] = 72 h, tissue Plasma, time 3 day, vehicle 100 % WATER
[5] = 120 h, time 5 day, vehicle 100 % SALINE
[6] = 120 h, time 5 day, vehicle 100 % WATER

SMILES: CCCc1nn(C)c2c(=O)[nH]c(-c3cc(S(=O)(=O)N4CCN(C)CC4)ccc3OCC)nc12
- ABSOLUTE EOSINOPHIL [1]: 37 CELLS/uL
- ABSOLUTE LYMPHOCYTE [1]: 12359.33 CELLS/uL
- ABSOLUTE MONOCYTE [1]: 122.67 CELLS/uL
- ABSOLUTE SEGMENTED NEUTROPHIL [1]: 847.67 CELLS/uL
- EOSINOPHIL [1]: 0.33%
- ERYTHROCYTE COUNT [1]: 5.75 x10E6/uL
- HEMATOCRIT [1]: 36.08%
- HEMOGLOBIN [1]: 14.07 G/DL
- LEUKOCYTE COUNT [1]: 13.37 x10E3/uL
- LYMPHOCYTE [1]: 92.5%
- MEAN CORPUSCULAR HEMOGLOBIN [1]: 24.47 pg
- MEAN CORPUSCULAR HEMOGLOBIN CONCENTRATION [1]: 38.98 G/DL
- MEAN CORPUSCULAR VOLUME [1]: 62.78 fL
- MONOCYTE [1]: 1%
- NEUTROPHIL [1]: 6.17%
- NUCLEATED RED BLOOD CELLS [1]: 0.17 /100WBC
- PLATELET COUNT [1]: 1202.17 x10E3/uL
- ABSOLUTE BASOPHIL [2]: 0 CELLS/uL
- ABSOLUTE EOSINOPHIL [2]: 0 CELLS/uL
- ABSOLUTE LYMPHOCYTE [2]: 7802.17 CELLS/uL
- ABSOLUTE MONOCYTE [2]: 13.5 CELLS/uL
- ABSOLUTE SEGMENTED NEUTROPHIL [2]: 617.67 CELLS/uL
- BASOPHIL [2]: 0%
- EOSINOPHIL [2]: 0%
- ERYTHROCYTE COUNT [2]: 5.35 x10E6/uL
- HEMATOCRIT [2]: 33.02%
- HEMOGLOBIN [2]: 12.88 G/DL
- LEUKOCYTE COUNT [2]: 8.43 x10E3/uL
- LYMPHOCYTE [2]: 92.67%
- MEAN CORPUSCULAR HEMOGLOBIN [2]: 24.12 pg
- MEAN CORPUSCULAR HEMOGLOBIN CONCENTRATION [2]: 39.03 G/DL
- MEAN CORPUSCULAR VOLUME [2]: 61.8 fL
- MONOCYTE [2]: 0.17%
- NEUTROPHIL [2]: 7.17%
- NUCLEATED RED BLOOD CELLS [2]: 0 /100WBC
- PLATELET COUNT [2]: 1124.83 x10E3/uL
- ALANINE AMINOTRANSFERASE [3]: 50.67 u/L
- ALBUMIN [3]: 4.13 G/DL
- ALKALINE PHOSPHATASE [3]: 356.33 u/L
- ASPARTATE AMINOTRANSFERASE [3]: 78.17 u/L
- BLOOD UREA NITROGEN [3]: 14.17 mg/dL
- CARBON DIOXIDE [3]: 31.33 mmol/L
- CHLORIDE [3]: 98.5 MEQ/L
- CHOLESTEROL [3]: 76.5 mg/dL
- CREATINE PHOSPHOKINASE [3]: 248.33 u/L
- CREATININE [3]: 0.2 mg/dL
- GLUCOSE [3]: 144 mg/dL
- LACTATE DEHYDROGENASE [3]: 107 u/L
- LIPASE [3]: 9.83 u/L
- PHOSPHORUS [3]: 12.8 mg/dL
- POTASSIUM [3]: 6.75 MEQ/L
- SODIUM [3]: 142 MEQ/L
- TOTAL PROTEIN [3]: 5.98 G/DL
- URIC ACID [3]: 1.42 mg/dL
- ALANINE AMINOTRANSFERASE [4]: 54.17 u/L
- ALBUMIN [4]: 4.07 G/DL
- ALKALINE PHOSPHATASE [4]: 383.83 u/L
- ASPARTATE AMINOTRANSFERASE [4]: 82.17 u/L
- BLOOD UREA NITROGEN [4]: 13.67 mg/dL
- CARBON DIOXIDE [4]: 31 mmol/L
- CHLORIDE [4]: 100.83 MEQ/L
- CHOLESTEROL [4]: 65.17 mg/dL
- CREATINE PHOSPHOKINASE [4]: 228.33 u/L
- CREATININE [4]: 0.12 mg/dL
- GLUCOSE [4]: 148 mg/dL
- LACTATE DEHYDROGENASE [4]: 97.83 u/L
- LIPASE [4]: 9.17 u/L
- PHOSPHORUS [4]: 9.75 mg/dL
- POTASSIUM [4]: 5.85 MEQ/L
- SODIUM [4]: 147.02 MEQ/L
- TOTAL BILIRUBIN [4]: 0.18 mg/dL
- TOTAL PROTEIN [4]: 6.1 G/DL
- URIC ACID [4]: 0.5 mg/dL
- ABSOLUTE LYMPHOCYTE [5]: 8681.17 CELLS/uL
- ABSOLUTE MONOCYTE [5]: 79.83 CELLS/uL
- ABSOLUTE SEGMENTED NEUTROPHIL [5]: 689 CELLS/uL
- HEMATOCRIT [5]: 33.55%
- HEMOGLOBIN [5]: 13.1 G/DL
- LEUKOCYTE COUNT [5]: 9.45 x10E3/uL
- LYMPHOCYTE [5]: 92.33%
- MEAN CORPUSCULAR HEMOGLOBIN [5]: 23.92 pg
- MEAN CORPUSCULAR HEMOGLOBIN CONCENTRATION [5]: 39.07 G/DL
- MEAN CORPUSCULAR VOLUME [5]: 61.22 fL
- MONOCYTE [5]: 0.67%
- NEUTROPHIL [5]: 7%
- PLATELET COUNT [5]: 1001.17 x10E3/uL
- ABSOLUTE BASOPHIL [6]: 0 CELLS/uL
- ABSOLUTE EOSINOPHIL [6]: 0 CELLS/uL
- ABSOLUTE LYMPHOCYTE [6]: 10538 CELLS/uL
- ABSOLUTE MONOCYTE [6]: 15.83 CELLS/uL
- ABSOLUTE SEGMENTED NEUTROPHIL [6]: 762.83 CELLS/uL
- BASOPHIL [6]: 0%
